According to ChEMBL document CHEMBL2440076, “New triarylpyrazoles as broad-spectrum anticancer agents: design, synthesis, and biological evaluation” (Eur J Med Chem, 2013):

Assays:
Type in all cases: functional
[1] = Growth inhibition of human NCI-ADR-RES cells assessed as cell growth at 5X10'-5 M after 48 hrs by sulforhodamine B assay; conditions: read-out: Activity
T47D [2] = test: Growth inhibition of human T47D cells assessed as cell growth at 5X10'-5 M after 48 hrs by sulforhodamine B assay; conditions: read-out: Activity
RPMI-8226 = test: Growth inhibition of human RPMI8226 cells assessed as cell growth at 5X10'-7 M after 48 hrs by sulforhodamine B assay; conditions: RPMI-8226, 48 h, read-out: Activity
SF-268 [3] = test: Growth inhibition of human SF268 cells assessed as cell growth at 10 uM after 48 hrs by sulforhodamine B assay; conditions: SF-268, 48 h, read-out: Activity
HOP-92 = test: Growth inhibition of human HOP92 cells assessed as cell growth at 5X10'-7 M after 48 hrs by sulforhodamine B assay; conditions: HOP-92, 48 h, read-out: Activity
SNB-75 [4] = test: Growth inhibition of human SNB75 cells assessed as cell growth at 5X10'-7 M after 48 hrs by sulforhodamine B assay; conditions: SNB-75, 48 h, read-out: Activity
SF-268 [5] = test: Growth inhibition of human SF268 cells assessed as cell growth at 5X10'-9 M after 48 hrs by sulforhodamine B assay; conditions: SF-268, 48 h, read-out: Activity
SF-539 = test: Growth inhibition of human SF539 cells after 48 hrs by sulforhodamine B assay; conditions: SF-539, 48 h
T47D [6] = test: Growth inhibition of human T47D cells assessed as cell growth at 5X10'-8 M after 48 hrs by sulforhodamine B assay; conditions: read-out: Activity
SF-295 = test: Growth inhibition of human SF295 cells assessed as cell growth at 5X10'-6 M after 48 hrs by sulforhodamine B assay; conditions: SF-295, 48 h, read-out: Activity
UO-31 = test: Growth inhibition of human UO31 cells assessed as cell growth at 5X10'-5 M after 48 hrs by sulforhodamine B assay; conditions: UO-31, 48 h, read-out: Activity
MCF7 = test: Growth inhibition of human MCF7 cells assessed as cell growth at 5X10'-6 M after 48 hrs by sulforhodamine B assay; conditions: MCF7, 48 h, read-out: Activity
OVCAR-5 = test: Growth inhibition of human OVCAR5 cells assessed as cell growth at 10 uM after 48 hrs by sulforhodamine B assay; conditions: OVCAR-5, 48 h, read-out: Activity
MDA-MB-468 [7] = test: Growth inhibition of human MDA-MB-468 cells assessed as cell growth at 10 uM after 48 hrs by sulforhodamine B assay; conditions: MDA-MB-468, 48 h, read-out: Activity
COLO 205 = test: Growth inhibition of human COLO205 cells assessed as cell growth at 5X10'-7 M after 48 hrs by sulforhodamine B assay; conditions: COLO 205, 48 h, read-out: Activity
CAKI-1 [8] = test: Growth inhibition of human CAKI-1 cells assessed as cell growth at 5X10'-9 M after 48 hrs by sulforhodamine B assay; conditions: CAKI-1, 48 h, read-out: Activity
HOP-62 = test: Growth inhibition of human HOP62 cells assessed as cell growth at 5X10'-8 M after 48 hrs by sulforhodamine B assay; conditions: HOP-62, 48 h, read-out: Activity
BT-549 = test: Growth inhibition of human BT549 cells after 48 hrs by sulforhodamine B assay; conditions: BT-549, 48 h
K562 = test: Growth inhibition of human K562 cells assessed as cell growth at 5X10'-7 M after 48 hrs by sulforhodamine B assay; conditions: K562, 48 h, read-out: Activity
PC-3 = test: Growth inhibition of human PC3 cells assessed as cell growth at 5X10'-9 M after 48 hrs by sulforhodamine B assay; conditions: PC-3, 48 h, read-out: Activity
MDA-MB-468 [9] = test: Growth inhibition of human MDA-MB-468 cells assessed as cell growth at 5X10'-9 M after 48 hrs by sulforhodamine B assay; conditions: MDA-MB-468, 48 h, read-out: Activity
ACHN = test: Growth inhibition of human ACHN cells assessed as cell growth at 5X10'-7 M after 48 hrs by sulforhodamine B assay; conditions: read-out: Activity
Malme-3M = test: Growth inhibition of human MALME-3M cells assessed as cell growth at 5X10'-8 M after 48 hrs by sulforhodamine B assay; conditions: read-out: Activity
SNB-75 [10] = test: Growth inhibition of human SNB75 cells after 48 hrs by sulforhodamine B assay; conditions: SNB-75, 48 h
UACC-62 = test: Growth inhibition of human UACC62 cells after 48 hrs by sulforhodamine B assay; conditions: UACC-62, 48 h
LOX IMVI = test: Growth inhibition of human LOXIMVI cells assessed as cell growth at 5X10'-7 M after 48 hrs by sulforhodamine B assay; conditions: read-out: Activity
TK-10 = test: Growth inhibition of human TK10 cells after 48 hrs by sulforhodamine B assay; conditions: TK-10, 48 h; for CC50: read-out: LC50 (the source's name)
SK-MEL-2 [11] = test: Growth inhibition of human SK-MEL-2 cells assessed as cell growth at 10 uM after 48 hrs by sulforhodamine B assay; conditions: SK-MEL-2, 48 h, read-out: Activity
CAKI-1 [12] = test: Growth inhibition of human CAKI-1 cells assessed as cell growth at 5X10'-6 M after 48 hrs by sulforhodamine B assay; conditions: CAKI-1, 48 h, read-out: Activity
SNB-19 = test: Growth inhibition of human SNB19 cells after 48 hrs by sulforhodamine B assay; conditions: SNB-19, 48 h
M14 = test: Growth inhibition of human M14 cells after 48 hrs by sulforhodamine B assay; conditions: M14, 48 h
SK-MEL-28 = test: Growth inhibition of human SK-MEL-28 cells assessed as cell growth at 5X10'-9 M after 48 hrs by sulforhodamine B assay; conditions: SK-MEL-28, 48 h, read-out: Activity
T47D [13] = test: Growth inhibition of human T47D cells assessed as cell growth at 5X10'-7 M after 48 hrs by sulforhodamine B assay; conditions: read-out: Activity
SK-MEL-2 [14] = test: Growth inhibition of human SK-MEL-2 cells after 48 hrs by sulforhodamine B assay; conditions: SK-MEL-2, 48 h
HT-29 = test: Growth inhibition of human HT-29 cells assessed as cell growth at 5X10'-8 M after 48 hrs by sulforhodamine B assay; conditions: HT-29, 48 h, read-out: Activity
HCT-15 = test: Growth inhibition of human HCT15 cells assessed as cell growth at 5X10'-5 M after 48 hrs by sulforhodamine B assay; conditions: HCT-15, 48 h, read-out: Activity

With O=C(Nc1cccc(-n2cc(-c3ccncc3)c(-c3ccc(Cl)c(O)c3)n2)c1)Nc1cc(C(F)(F)F)cc(C(F)(F)F)c1 the growth at 50 µM [1] was -56%, the growth at 50 µM (T47D [2]) was -25% and the growth at 0.5 µM (RPMI-8226) was 49%. The growth at 10 µM (SF-268 [3]) was -36.4%, the growth at 0.5 µM (HOP-92) was 45% and the growth at 0.5 µM (SNB-75 [4]) was 81%. For the same compound, the growth at 0.005 µM (SF-268 [5]) was 98%, the GI50 (SF-539) was 765 nM and the LC50 (concentration killing 50% of cells) (SF-539) was 2890 nM. For the same compound, the TGI (SF-539) was 1490 nM, the growth at 0.05 µM (T47D [6]) was 98% and the growth at 5 µM (SF-295) was -57%. For the same compound, the growth at 50 µM (UO-31) was -86%, the growth at 5 µM (MCF7) was 4% and the growth at 10 µM (OVCAR-5) was -32.9%. It also gave a growth at 10 µM (MDA-MB-468 [7]) of -23.9%, a growth at 0.5 µM (COLO 205) of 93% and a growth at 0.005 µM (CAKI-1 [8]) of 97%. The growth at 0.05 µM (HOP-62) was 97%, the GI50 (BT-549) was 1090 nM and the LC50 (50% lethal concentration) (BT-549) was 4110 nM. The TGI (BT-549) was 2120 nM, the growth at 0.5 µM (K562) was 46% and the growth at 0.005 µM (PC-3) was 90%. The growth at 0.005 µM (MDA-MB-468 [9]) was 94%, the growth at 0.5 µM (ACHN) was 55% and the growth at 0.05 µM (Malme-3M) was 100%. For the same compound, the GI50 (SNB-75 [10]) was 877 nM, the LC50 (lethal concentration, 50% net cell kill) (SNB-75 [10]) was 7030 nM and the TGI (SNB-75 [10]) was 2180 nM. It also gave a GI50 (UACC-62) of 749 nM, an LC50 (50% lethal concentration) (UACC-62) of 8460 nM and a TGI (UACC-62) of 2190 nM. It also gave a growth at 0.5 µM (LOX IMVI) of 76%, a GI50 (TK-10) of 959 nM and a TGI (TK-10) of 3580 nM. It also gave a CC50 (TK-10) of 14200 nM, a growth at 10 µM (SK-MEL-2 [11]) of -73.7% and a growth at 5 µM (CAKI-1 [12]) of -4%. For the same compound, the GI50 (SNB-19) was 983 nM, the LC50 (concentration killing 50% of cells) (SNB-19) was > 50000 nM and the TGI (SNB-19) was 8960 nM. It also gave a GI50 (M14) of 607 nM, an LC50 (concentration killing 50% of cells) (M14) of 6060 nM and a TGI (M14) of 1810 nM. The growth at 0.005 µM (SK-MEL-28) was 101%, the growth at 0.5 µM (T47D [13]) was 88% and the GI50 (SK-MEL-2 [14]) was 1250 nM. It also gave an LC50 (50% lethal concentration) (SK-MEL-2 [14]) of 14100 nM, a TGI (SK-MEL-2 [14]) of 3030 nM and a growth at 0.05 µM (HT-29) of 107%. For the same compound, the growth at 50 µM (HCT-15) was -74%.

COc1cc(-c2nn(-c3cccc(NC(=O)c4cccc(C(F)(F)F)c4)c3)cc2-c2ccncc2)ccc1Cl gave a growth at 50 µM [1] of -9%, a growth at 50 µM (T47D [2]) of 21% and a growth at 0.5 µM (RPMI-8226) of 88%. For the same compound, the growth at 10 µM (SF-268 [3]) was 30.5%, the growth at 0.5 µM (HOP-92) was 53% and the growth at 0.5 µM (SNB-75 [4]) was 79%. The growth at 0.005 µM (SF-268 [5]) was 94%, the GI50 (SF-539) was 895 nM and the LC50 (concentration killing 50% of cells) (SF-539) was > 50000 nM. The TGI (SF-539) was 2300 nM, the growth at 0.05 µM (T47D [6]) was 91% and the growth at 5 µM (SF-295) was -24%. For the same compound, the growth at 50 µM (UO-31) was 19%, the growth at 5 µM (MCF7) was 13% and the growth at 10 µM (OVCAR-5) was 49.4%. The growth at 10 µM (MDA-MB-468 [7]) was -19.4%, the growth at 0.5 µM (COLO 205) was 102% and the growth at 0.005 µM (CAKI-1 [8]) was 94%. The growth at 0.05 µM (HOP-62) was 97%, the GI50 (BT-549) was 2870 nM and the LC50 (50% lethal concentration) (BT-549) was > 50000 nM. It also gave a TGI (BT-549) of 46800 nM, a growth at 0.5 µM (K562) of 83% and a growth at 0.005 µM (PC-3) of 98%. It also gave a growth at 0.005 µM (MDA-MB-468 [9]) of 94%, a growth at 0.5 µM (ACHN) of 81% and a growth at 0.05 µM (Malme-3M) of 82%. For the same compound, the GI50 (SNB-75 [10]) was 1130 nM, the LC50 (lethal concentration, 50% net cell kill) (SNB-75 [10]) was > 50000 nM and the GI50 (UACC-62) was 1940 nM. The LC50 (50% lethal concentration) (UACC-62) was > 50000 nM, the TGI (UACC-62) was > 50000 nM and the growth at 0.5 µM (LOX IMVI) was 84%. The GI50 (TK-10) was 3240 nM, the TGI (TK-10) was > 50000 nM and the CC50 (TK-10) was > 50000 nM. The growth at 10 µM (SK-MEL-2 [11]) was -38.6%, the growth at 5 µM (CAKI-1 [12]) was 24% and the GI50 (SNB-19) was 2460 nM. The LC50 (concentration killing 50% of cells) (SNB-19) was > 50000 nM, the TGI (SNB-19) was > 50000 nM and the GI50 (M14) was 1630 nM. For the same compound, the LC50 (concentration killing 50% of cells) (M14) was > 50000 nM, the TGI (M14) was > 50000 nM and the growth at 0.005 µM (SK-MEL-28) was 103%. For the same compound, the growth at 0.5 µM (T47D [13]) was 84%, the GI50 (SK-MEL-2 [14]) was 1560 nM and the LC50 (50% lethal concentration) (SK-MEL-2 [14]) was > 50000 nM. For the same compound, the TGI (SK-MEL-2 [14]) was > 50000 nM, the growth at 0.05 µM (HT-29) was 96% and the growth at 50 µM (HCT-15) was 8%.
